# Results taken from PubChem BioAssay AID1259411 (Chemical Carcinogenesis Research Information System (CCRIS), 2018).
# Active and inactive are the calls of the source. How the calls were made is not given here.
# Test system: rodent carcinogenicity bioassays, tumor incidence
# Assay: CCRIS carcinogenicity studies
# Procedure, shortened: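 NCI-built, expert-reviewed records of carcinogenicity and related test outcomes (mutagenicity, tumor promotion/inhibition) compiled from published and report sources, historical span 1985-2011, not updated.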
structure (smiles),measurement,setting,value
CN(C)N=O,carcinogen call,"Species: DUCK, Route: ORAL, Tumor Site: Type of Lesion: LIVER",active; positive
same,carcinogen call,"Species: FISH, Route: ORAL, Tumor Site: Type of Lesion: LIVER",active; positive
same,carcinogen call,"Species: GUINEA PIG, Route: ORAL, Tumor Site: Type of Lesion: LIVER",active; positive
same,carcinogen call,"Species: HAMSTER, Route: ORAL, Tumor Site: Type of Lesion: LIVER",active; positive
same,carcinogen call,"Species: HAMSTER, Route: SUBCUTANEOUS, Tumor Site: Type of Lesion: LIVER, KIDNEY, NASAL CAVITY, Tumor Site: Type of Lesion: LIVER, KIDNEY, NASAL CAVITY",active; positive
same,carcinogen call,"Species: HAMSTER, Strain/Sex: SYRIAN/MALE, Route: INTRATRACHEAL, Dose: 0, 0.05, 0.1 MG IN PHOSPHATE BUFFER 1/WK FOR 15 WK (TOTAL DOSE: 0; 0.75; 0.5 MG) (STUDY DURATION: LIFESPAN), Dose: 0, 0.05, 0.1 MG IN PHOSPHATE BUFFER 1/WK FOR 15 WK (TOTAL DOSE: 0; 0.75; 0.5 MG) (STUDY DURATION: LIFESPAN), Tumor Site: Type of Lesion: LIVER: HEMANGIOSARCOMA, TUMOR",active; positive
same,carcinogen call,"Species: HAMSTER, Strain/Sex: SYRIAN/MALE, Route: INTRATRACHEAL, Dose: 0, 0.5 MG IN PHOSPHATE BUFFER ONCE (STUDY DURATION: LIFESPAN)",inactive; negative
same,carcinogen call,"Species: MOUSE, Route: INHALATION, Tumor Site: Type of Lesion: LIVER, LUNG, KIDNEY, Tumor Site: Type of Lesion: LIVER, LUNG, KIDNEY",active; positive
same,carcinogen call,"Species: MOUSE, Route: INTRAPERITONEAL, Tumor Site: Type of Lesion: LIVER, LUNG, KIDNEY, Tumor Site: Type of Lesion: LIVER, LUNG, KIDNEY",active; positive
same,carcinogen call,"Species: MOUSE, Route: ORAL, Tumor Site: Type of Lesion: LIVER, LUNG, KIDNEY, Tumor Site: Type of Lesion: LIVER, LUNG, KIDNEY",active; positive
same,carcinogen call,"Species: MOUSE, Route: SUBCUTANEOUS, Tumor Site: Type of Lesion: LIVER, LUNG",active; positive
same,carcinogen call,"Species: MOUSE, Strain/Sex: C3H/FEMALE, Route: TRANSPLACENTAL, Dose: 0, 0.1 MMOL IN 0.9% STERILE SALINE (7.4 MG/KG) ON DAY 16 OF GESTATION (STUDY DURATION: LIFETIME), Tumor Site: Type of Lesion: LIVER: CARCINOMA",active; positive
same,carcinogen call,"Species: MOUSE, Strain/Sex: C3H/FEMALE, Route: TRANSPLACENTAL, Dose: 0, 0.1 MMOL IN 0.9% STERILE SALINE (7.4 MG/KG) ON DAY 19 OF GESTATION (STUDY DURATION: LIFETIME), Tumor Site: Type of Lesion: LIVER: CARCINOMA",active; positive
same,carcinogen call,"Species: MOUSE, Strain/Sex: C3H/MALE, Route: TRANSPLACENTAL, Dose: 0, 0.1 MMOL IN 0.9% STERILE SALINE (7.4 MG/KG) ON DAY 16 OF GESTATION (STUDY DURATION: LIFETIME)",inactive; negative
same,carcinogen call,"Species: MOUSE, Strain/Sex: C3H/MALE, Route: TRANSPLACENTAL, Dose: 0, 0.1 MMOL IN 0.9% STERILE SALINE (7.4 MG/KG) ON DAY 19 OF GESTATION (STUDY DURATION: LIFETIME), Tumor Site: Type of Lesion: LIVER: CARCINOMA",active; positive
same,carcinogen call,"Species: MOUSE, Strain/Sex: STRAIN-A/FEMALE, Route: INTRAPERITONEAL, Dose: 0, 5, 20 UMOL TOTAL DOSE ADMINISTERED IN SUBDOSES 3/WK FOR 7 WK (STUDY DURATION: 37 WK), Dose: 0, 5, 20 UMOL TOTAL DOSE ADMINISTERED IN SUBDOSES 3/WK FOR 7 WK (STUDY DURATION: 37 WK), Tumor Site: Type of Lesion: LUNG: TUMOR",active; positive
same,carcinogen call,"Species: RABBIT, Route: ORAL, Tumor Site: Type of Lesion: LIVER",active; positive
same,carcinogen call,"Species: RAT, Route: INHALATION, Tumor Site: Type of Lesion: NASAL CAVITY",active; positive
same,carcinogen call,"Species: RAT, Route: ORAL, Tumor Site: Type of Lesion: LIVER, KIDNEY",active; positive
same,carcinogen call,"Species: RAT, Route: SUBCUTANEOUS, INTRAPERITONEAL, Tumor Site: Type of Lesion: KIDNEY",active; positive
same,carcinogen call,"Species: RAT, Strain/Sex: F344/FEMALE, Route: INTRAVESICULAR, Dose: 0, 2 MG IN 0.2 ML ETHANOL: DEIONIZED WATER (1:3) 2/WK FOR 30 WK (TOTAL DOSE: 1.6 MMOL) (STUDY DURATION: LIFESPAN), Tumor Site: Type of Lesion: KIDNEY: MESENCHYMAL NEOPLASM, LUNG: TUMOR",active; positive
same,carcinogen call,"Species: RAT, Strain/Sex: SPRAGUE-DAWLEY/FEMALE, Route: INHALATION, Dose: 0, 0.04, 0.2, 1 PPM 4-5 HR/D 4 D/WK FOR 207 D (ESTIMATED DAILY UPTAKE OF 0; 10; 40; 180 UG/KG) (STUDY DURATION: 207 D), Dose: 0, 0.04, 0.2, 1 PPM 4-5 HR/D 4 D/WK FOR 207 D (ESTIMATED DAILY UPTAKE OF 0; 10; 40; 180 UG/KG) (STUDY DURATION: 207 D), Tumor Site: Type of Lesion: NASAL CAVITY: TUMOR",active; positive
same,carcinogen call,"Species: RAT, Strain/Sex: WISTAR/FEMALE, Route: INTRAPERITONEAL, Dose: 0, 0.04% IN 0.1-0.2 ML PHYSIOLOGICAL SALINE 1/D FOR D 1-5 OF LIFE (TOTAL DOSE 0.2 MG) (STUDY DURATION: LIFESPAN OR 1 YR), Tumor Site: Type of Lesion: LIVER: HEPATOCELLULAR CARCINOMA, HEPATOMA, CHOLANGIOMA, ANGIOMA, KIDNEY: MESENCHYMAL TUMOR, EPITHELIAL TUMOR",active; positive
same,carcinogen call,"Species: RAT, Strain/Sex: WISTAR/FEMALE, Route: INTRAPERITONEAL, Dose: 0, 0.04% IN 0.1-0.2 ML PHYSIOLOGICAL SALINE 1/D FOR D 1-10 OF LIFE (TOTAL DOSE 0.4 MG) (STUDY DURATION: LIFESPAN OR 1 YR, Tumor Site: Type of Lesion: LIVER: HEPATOCELLULAR CARCINOMA, HEPATOMA, CHOLANGIOMA, ANGIOMA, KIDNEY: MESENCHYMAL TUMOR, EPITHELIAL TUMOR",active; positive
same,carcinogen call,"Species: RAT, Strain/Sex: WISTAR/FEMALE, Route: INTRAPERITONEAL, Dose: 0, 0.04% IN 0.1-0.2 ML PHYSIOLOGICAL SALINE 1/D FOR D 1-20 OF LIFE (TOTAL DOSE 0.5 MG) (STUDY DURATION: LIFESPAN OR 1 YR, Tumor Site: Type of Lesion: LIVER: HEPATOCELLULAR CARCINOMA, HEPATOMA, ANGIOMA, KIDNEY: MESENCHYMAL TUMOR",active; positive
same,carcinogen call,"Species: RAT, Strain/Sex: WISTAR/FEMALE, Route: ORAL, Dose: 0, 0.033, 0.066, 0.132, 0.264, 0.528, 1.056, 1.584, 2.112, 2.640, 3.168, 4.224, 5.280, 6.336, 8.448, 16.896 PPM IN DRINK, Dose: 0, 0.033, 0.066, 0.132, 0.264, 0.528, 1.056, 1.584, 2.112, 2.640, 3.168, 4.224, 5.280, 6.336, 8.448, 16.896 PPM IN DRINK, Tumor Site: Type of Lesion: LIVER: HEPATOCELLULAR CARCINOMA, HEMANGIOMA, BILE DUCT: TUMOR",active; positive
same,carcinogen call,"Species: RAT, Strain/Sex: WISTAR/MALE, Route: INTRAPERITONEAL, Dose: 0, 0.04% IN 0.1-0.2 ML PHYSIOLOGICAL SALINE 1/D FOR D 1-5 OF LIFE (TOTAL DOSE 0.2 MG) (STUDY DURATION: LIFESPAN OR 1 YR), Tumor Site: Type of Lesion: LIVER: HEPATOCELLULAR CARCINOMA, HEPATOMA, CHOLANGIOMA, KIDNEY: MESENCHYMAL TUMOR, EPITHELIAL TUMOR",active; positive
same,carcinogen call,"Species: RAT, Strain/Sex: WISTAR/MALE, Route: INTRAPERITONEAL, Dose: 0, 0.04% IN 0.1-0.2 ML PHYSIOLOGICAL SALINE 1/D FOR D 1-10 OF LIFE (TOTAL DOSE 0.4 MG) (STUDY DURATION: LIFESPAN OR 1 YR, Tumor Site: Type of Lesion: LIVER: HEPATOCELLULAR CARCINOMA, HEPATOMA, CHOLANGIOMA, ANGIOMA, KIDNEY: MESENCHYMAL TUMOR, EPITHELIAL TUMOR",active; positive
same,carcinogen call,"Species: RAT, Strain/Sex: WISTAR/MALE, Route: INTRAPERITONEAL, Dose: 0, 0.04% IN 0.1-0.2 ML PHYSIOLOGICAL SALINE 1/D FOR D 1-20 OF LIFE (TOTAL DOSE 0.5 MG) (STUDY DURATION: LIFESPAN OR 1 YR, Tumor Site: Type of Lesion: LIVER: HEPATOCELLULAR CARCINOMA, HEPATOMA, ANGIOMA, KIDNEY: MESENCHYMAL TUMOR",active; positive
same,carcinogen call,"Species: RAT, Strain/Sex: WISTAR/MALE, Route: ORAL, Dose: 0, 0.033, 0.066, 0.132, 0.264, 0.528, 1.056, 1.584, 2.112, 2.640, 3.168, 4.224, 5.280, 6.336, 8.448, 16.896 PPM IN DRINK, Dose: 0, 0.033, 0.066, 0.132, 0.264, 0.528, 1.056, 1.584, 2.112, 2.640, 3.168, 4.224, 5.280, 6.336, 8.448, 16.896 PPM IN DRINK, Tumor Site: Type of Lesion: LIVER: HEPATOCELLULAR CARCINOMA, HEMANGIOMA, BILE DUCT: TUMOR",active; positive
